Measured values: patent US20250230138A1, “COMPOUNDS HAVING A T-STRUCTURE FORMED BY AT LEAST FOUR CYCLES FOR USE IN THE TREATMENT OF CANCER AND OTHER INDICATIONS” (TheRas, Inc., priority 2022, published 2025)
Read-outs that look alike come from different tables or passages of the source.

How the values were obtained:
pAKT in BT474 cells = assay: Cell-based pAKT HTRF assay in BT474 cells; settings: BT474 cells, 4 hr incubation, read-out: pAKT inhibition IC50 in BT474 cells
Method in brief: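 Cells grown in DMEM with 10% FBS were exposed to compounds for 4 hr in 0.25% DMSO, using a 9-point, 3-fold dilution series that starts at 3 μM. Lysates were incubated with d2 and Eu Cryptate antibodies for 4–24 h at room temperature, and HTRF was read at 615 nm emission.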

[1] = molecular target: Cys242 in human PIK3CA (157-299) (Homo sapiens (Human), UniProt P42336); assay: Covalent modification assay using MALDI-TOF MS; format: biochemical; settings: 4 h reaction time point
Sequence of Cys242 in human PIK3CA (157-299) (P42336 157-299): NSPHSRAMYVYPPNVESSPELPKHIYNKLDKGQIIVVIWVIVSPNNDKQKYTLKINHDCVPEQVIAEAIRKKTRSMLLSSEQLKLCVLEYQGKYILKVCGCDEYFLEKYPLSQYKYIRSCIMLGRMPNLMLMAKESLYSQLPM
Method in brief: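 Covalent adduct formation was read by linear-mode MALDI-TOF with sinapinic acid matrix, reported as modified-protein peak height divided by total protein peak heights. Reactions held PIK3CA (157-299) at 1 or 3.33 μM in HEPES/NaCl/MgCl2 buffer, pH 7.3, sampled after 15 min to 4 h at room temperature.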

[2] = 1 μM protein target, 1:5 protein to compound ratio (compounds 853-1279)
[3] = 3.33 μM protein target, 1:7.5 protein to compound ratio (compounds 1-852)
[4] = Homo sapiens, BT-474, Compounds 1000-1279

Structure (SMILES)	IC50 (pAKT in BT474 cells; Compounds 10-999)	% of modification [1, 2]	% of modification [1, 3]	further results
C=CC(=O)N1Cc2cc(-c3nc(-c4ccnnc4)c4ccsc4c3-c3c(F)cc(F)cc3OCCOC)nn2CC1C (stereo not shown) [Compound 948]	< 100 nM	A (percent of modification of PIK3CA protein ≥75%)		
C=CC(=O)N1CCn2nc(-c3nc(-c4ccc5c(c4)CNC(=O)C5)c4ccsc4c3-c3c(F)cc(F)cc3OCCOC)cc2C1C (stereo not shown) [Compound 926]	< 100 nM	A (percent of modification of PIK3CA protein ≥75%)		
C=CC(=O)N1Cc2cc(-c3nc(-c4cnn(C)c(=O)c4)c4ccsc4c3-c3c(F)cc(F)cc3OCCOC)nn2C[C@H]1C [Compound 793]	< 100 nM		A (percent of modification of PIK3CA protein ≥75%)	
C=CC(=O)N1CCc2nc(-c3nc(-c4ccc5c(c4)CCN(C)C5)c4ccsc4c3-c3c(F)cc(F)cc3OCCO)sc2C1 [Compound 418]	< 100 nM		A (percent of modification of PIK3CA protein ≥75%)	
C=CC(=O)N1Cc2cc(-c3nc(-c4ccc5c(c4)CCN(C)C5)c4ccsc4c3-c3c(F)cc(F)cc3OC(C)C)cnc2C[C@H]1C [Compound 476, 1-((7R)-3-(7-(2,4-difluoro-6-isopropoxyphenyl)-4-(2-methyl-1,2,3,4-tetrahydroisoquinolin-6-yl)thieno[3,2-c]pyridin-6-yl)-7-methyl-7,8-dihydro-1,6-naphthyridin-6(5H)-yl)prop-2-en-1-one]			A (percent of modification of PIK3CA protein ≥75%)	IC50 (pAKT in BT474 cells; Homo sapiens, BT-474, Compounds 10-999): 100 to 1000 nM
C=CC(=O)N1CCc2nc(-c3nc(-c4ccc5c(c4)NC(=O)C5)c4ccsc4c3-c3ccc(F)cc3OCCOC)sc2C1 [Compound 163]	< 100 nM		A (percent of modification of PIK3CA protein ≥75%)	
CC#CC(=O)N1CC(n2cc(-c3nc(-c4ccc5c(c4)CCNC5)c4ccsc4c3-c3ccc(F)cc3OC)cn2)C1 [Compound 113]	> 3000 nM		D (percent of modification <25%)	
C=CC(=O)N1CCc2nc(-c3nc(-c4ccc5c(c4)CCNC5)c4ccsc4c3-c3ccc(F)cc3OCCOC)n(C)c2C1 [Compound 100]	100 to 1000 nM		A (percent of modification of PIK3CA protein ≥75%)	
C=CC(=O)N1CCc2ccc(-c3nc(-c4cnc5c(c4)CNC(=O)C5)c4ccsc4c3-c3c(F)cc(F)cc3OCCOC)cc2C1 [Compound 482]	< 100 nM		A (percent of modification of PIK3CA protein ≥75%)	
C=CC(=O)N1Cc2cc(-c3nc(-c4ccc5nn(C)cc5c4)c4ccsc4c3-c3c(F)cc(F)cc3OCCOC)nn2C[C@H]1C [Compound 668, 1-((R)-2-((S)-7-(2,4-difluoro-6-(2-methoxyethoxy)phenyl)-4-(2-methyl-2H-indazol-5-yl)thieno[3,2-c]pyridin-6-yl)-6-methyl-6,7-dihydropyrazolo[1,5-a]pyrazin-5(4H)-yl)prop-2-en-1-one]	< 100 nM		A (percent of modification of PIK3CA protein ≥75%)	
C=CC(=O)N1CCn2nc(-c3nc(N4CC5(CNC(=O)C5)C4)c4ccsc4c3-c3c(F)cc(F)cc3OCCOC)cc2C1C (stereo not shown) [Compound 1013]		A (percent of modification of PIK3CA protein ≥75%)		IC50 (pAKT in BT474 cells; Compounds 1000-1279): 100 to 1000 nM
C=CC(=O)N1CCn2nc(-c3nc(-c4ccc(C5(C(=O)NC)CC5)cc4)c4ccsc4c3-c3c(F)cc(F)cc3OCCO)cc2[C@H]1C [Compound 1135]		A (percent of modification of PIK3CA protein ≥75%)		IC50 (pAKT in BT474 cells; Compounds 1000-1279): < 100 nM
C=CC(=O)N1Cc2cc(-c3nc(-c4cnn(CC(C)(C)O)c4)c4ccsc4c3-c3c(F)cc(F)cc3OC(C)C)nn2[C@@H](C)C1 [Compound 493]	< 100 nM		A (percent of modification of PIK3CA protein ≥75%)	
C=CC(=O)N1CCn2nc(-c3nc(-c4ccc(OCCN5CCC5)cc4)c4ccsc4c3-c3c(F)cc(F)cc3OCCOC)cc2C1C (stereo not shown) [Compound 1073]		A (percent of modification of PIK3CA protein ≥75%)		IC50 (pAKT in BT474 cells; Compounds 1000-1279): < 100 nM
C=CC(=O)N1CCc2ncc(-c3nc(-c4ccc5c(cnn5C)c4)c4sccc4c3-c3c(F)cc(F)cc3OCCOC)cc2C1 [Compound 1261, 1-[3-[4-[2,4-difluoro-6-(2-methoxyethoxy)phenyl]-7-(1-methylindazol-5-yl)thieno[2,3-c]pyridin-5-yl]-7,8-dihydro-5H-1,6-naphthyridin-6-yl]prop-2-en-1-one]		A (percent of modification of PIK3CA protein ≥75%)		IC50 (pAKT in BT474 cells; [4]): < 100 nM
C=CC(=O)N1CCc2nc(-c3nc(-c4ccc5c(c4)CCN(C)C5)c4ccsc4c3-c3c(F)cc(F)cc3OCCOC)sc2C1 (single isomer, unassigned) [Compound 450]	< 100 nM		A (percent of modification of PIK3CA protein ≥75%)	

Structure (SMILES)	IC50 (pAKT in BT474 cells; Compounds 10-999)	% of modification [1, 2]	% of modification [1, 3]	further results
C=CC(=O)N1CCc2ccc(-c3nc(-c4ccc5c(c4)CNC5=O)c4ccsc4c3-c3c(F)cc(F)cc3OCCO)cc2C1 (single isomer, unassigned) [Compound 962]	< 100 nM	A (percent of modification of PIK3CA protein ≥75%)		
C=CC(=O)N1CCn2nc(-c3nc(-c4ccc5c(c4)CNC5=O)c4c(c3-c3c(F)cc(F)cc3OCCOC)CCC4)cc2[C@H]1C [Compound 1174, 5-((R)-3-((R)-5-acryloyl-4-methyl-4,5,6,7-tetrahydropyrazolo[1,5-a]pyrazin-2-yl)-4-(2,4-difluoro-6-(2-methoxyethoxy)phenyl)-6,7-dihydro-5H-cyclopenta[c]pyridin-1-yl)isoindolin-1-one]		A (percent of modification of PIK3CA protein ≥75%)		IC50 (pAKT in BT474 cells; Compounds 1000-1279): < 100 nM
C=CC(=O)N1Cc2cc(-c3nc(-c4ccc5c(cnn5C)c4)c4ccsc4c3-c3c(F)cc(F)cc3OC[C@@H](C)O)nn2[C@@H](C)C1 [Compound 608]	100 to 1000 nM		D (percent of modification <25%)	
C=CC(=O)N1CCn2nc(-c3nc(-c4cnnc(N5CCN(C)CC5)c4)c4ccsc4c3-c3c(F)cc(F)cc3OCCOC)cc2C1C (stereo not shown) [Compound 1045]		A (percent of modification of PIK3CA protein ≥75%)		IC50 (pAKT in BT474 cells; Compounds 1000-1279): < 100 nM
C=CC(=O)N1CCc2ccc(-c3nc(-c4ccc5c(c4)CNC5=O)c4ccsc4c3-c3c(F)cc(F)cc3OCCOC)cc2C1 (single isomer, unassigned) [Compound 887]	< 100 nM	A (percent of modification of PIK3CA protein ≥75%)		
C=CC(=O)N1CCc2nc(-c3nc(-c4ccc5c(c4)CNC5=O)c4ccsc4c3-c3c(F)cc(F)cc3OCCOC)sc2C1 [Compound 364]	< 100 nM		A (percent of modification of PIK3CA protein ≥75%)	
C=CC(=O)N1CCc2ccc(-c3nc(-c4ccc5c(c4)CNC5=O)c4ccsc4c3-c3c(F)cc(F)cc3OCCOC)cc2C1 (single isomer, unassigned) [Compound 886]	> 3000 nM	D (percent of modification <25%)		
C=CC(=O)N1CCn2nc(-c3nc(-c4ccc(C(=O)NCCN(C)C)cc4)c4ccsc4c3-c3c(F)cc(F)cc3OCCOC)cc2C1C (stereo not shown) [Compound 1059]		A (percent of modification of PIK3CA protein ≥75%)		IC50 (pAKT in BT474 cells; Compounds 1000-1279): < 100 nM
C=CC(=O)N1C[C@H](C)n2nc(-c3nc(-c4cnn(C)c4)c4ccsc4c3-c3c(F)cc(F)cc3OCCOC)cc2[C@@H]1C [Compound 603]	1000 to 3000 nM		D (percent of modification <25%)	
C=CC(=O)N1CCc2nc(-c3nc(-c4cnc5c(c4)CCN(C)C5)c4ccsc4c3-c3c(F)cc(F)cc3OCCOC)sc2C1 [Compound 521]	< 100 nM		A (percent of modification of PIK3CA protein ≥75%)	
C=CC(=O)N1CCc2nc(-c3nc(-c4cnc5c(c4)CNC(=O)C5)c4ccsc4c3-c3c(F)cc(F)cc3OC(C)C)sc2C1 (single isomer, unassigned) [Compound 588]	< 100 nM		A (percent of modification of PIK3CA protein ≥75%)	
C=CC(=O)N1CCn2nc(-c3nc(-c4cnnc(C5CC5)c4)c4ccsc4c3-c3c(F)cc(F)cc3OCCOC)cc2C1C (stereo not shown) [Compound 1030]		A (percent of modification of PIK3CA protein ≥75%)		IC50 (pAKT in BT474 cells; Compounds 1000-1279): < 100 nM
C=CC(=O)N1CC(n2cc(-c3nc(-c4ccc5c(c4)CCNCC5)c4ccsc4c3-c3ccc(F)cc3OC)cn2)C1 [Compound 102]	100 to 1000 nM		A (percent of modification of PIK3CA protein ≥75%)	
C=CC(=O)N1CCn2nc(-c3nc(-c4cnn(C)c4)c4ccsc4c3-c3ccc(F)cc3OC(F)F)nc2C1 [Compound 216]	100 to 1000 nM		A (percent of modification of PIK3CA protein ≥75%)	
C=CC(=O)N1CCn2nc(-c3nc(-c4ccc5c(c4)CCN(C)C5)c4ccsc4c3-c3ccc(F)cc3OC)cc2C1 [Compound 265]	< 100 nM		A (percent of modification of PIK3CA protein ≥75%)	
C=CC(=O)N1CCn2nc(-c3nc(-c4cnc5c(c4)CN(C)CC5(F)F)c4ccsc4c3-c3c(F)cc(F)cc3OCCOC)cc2[C@H]1C [Compound 1152, 1-((R)-2-((S)-7-(2,4-difluoro-6-(2-methoxyethoxy)phenyl)-4-(8,8-difluoro-6-methyl-5,6,7,8-tetrahydro-1,6-naphthyridin-3-yl)thieno[3,2-c]pyridin-6-yl)-4-methyl-6,7-dihydropyrazolo[1,5-a]pyrazin-5(4H)-yl)prop-2-en-1-one]		A (percent of modification of PIK3CA protein ≥75%)		IC50 (pAKT in BT474 cells; [4]): < 100 nM
